# Assays:
# human recombinant DAT = target: T1, human recombinant DAT (Homo sapiens, UniProt Q01959); assay: [3H]-WIN35428 equilibrium binding, CHO-K1-hDAT membranes; conditions: mean (95% CI), 3 to 9 experiments, read-out: Transporter Binding: pKi DAT (converted)
# T1 construct: expressed in transfected cells; 'hDAT cells' for uptake
# Source text: (§1) The in vitro pharmacology of TD-9855 (4-[2-(2, 4, 6-trifluorophenoxymethyl)phenyl]piperidine; Figure 1) at human recombinant and rat native monoamine transporters was characterized as described previously ([Tsuruda et al., 2010]; [Shen et al., 2013]). Radioligands were sourced commercially (Perkin Elmer Life Sciences or GE Healthcare Life Sciences). Briefly, membranes prepared from HEK293 (Human Embryonic Kidney 293) cells stably-transfected with human recombinant SERT (HEK293-hSERT), NET (HEK293-hNET), or DAT ([…]) were incubated for 1hr at 22°C in the absence, or presence, of TD-9855 and [^3H]-citalopram (1.0nM) for SERT, [^3H]-nisoxetine (2.0nM) for NET, and [^3H]-WIN35428 (3.0nM) for DAT in 50mM Tris-HCl, 120mM NaCl, 5mM KCl, 0.025% BSA, 100 μM ascorbic acid, pH 7.4. Rat cortical membrane preparations were incubated with [^3H]-citalopram (2.0nM) for SERT or [^3H]-nisoxetine (4.0nM) for NET for 1hr at 22°C. […] Binding and uptake assays were terminated by rapid filtration and radioactivity, determined by liquid scintillation spectroscopy.
# rat native SERT = target: T2, rat native SERT (Rattus norvegicus, UniProt P31652); assay: [3H]-citalopram binding, rat cortical membranes; conditions: mean (95% CI), 3 to 9 experiments, read-out: Transporter Binding: pKi SERT (converted)
# T2 construct: at human recombinant and rat native monoamine transporters; from tissue
# T2 sequence (P31652 whole entry): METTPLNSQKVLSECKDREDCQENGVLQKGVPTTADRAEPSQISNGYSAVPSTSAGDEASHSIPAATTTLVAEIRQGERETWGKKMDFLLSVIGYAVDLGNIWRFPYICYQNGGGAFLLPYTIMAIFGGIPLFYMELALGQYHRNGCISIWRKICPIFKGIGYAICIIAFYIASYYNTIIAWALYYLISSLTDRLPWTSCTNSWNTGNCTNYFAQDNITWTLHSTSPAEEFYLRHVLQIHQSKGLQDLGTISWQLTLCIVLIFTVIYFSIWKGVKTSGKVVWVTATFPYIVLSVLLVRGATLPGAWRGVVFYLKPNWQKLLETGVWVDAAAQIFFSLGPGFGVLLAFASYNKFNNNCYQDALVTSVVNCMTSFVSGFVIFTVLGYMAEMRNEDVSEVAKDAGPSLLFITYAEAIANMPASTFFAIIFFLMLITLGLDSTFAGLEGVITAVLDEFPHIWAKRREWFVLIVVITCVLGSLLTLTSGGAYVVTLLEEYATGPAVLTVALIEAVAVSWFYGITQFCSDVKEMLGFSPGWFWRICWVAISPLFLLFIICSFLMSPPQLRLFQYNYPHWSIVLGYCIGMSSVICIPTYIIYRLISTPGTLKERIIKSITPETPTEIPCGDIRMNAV
# Source text: as §1
# [1] = human, data on file, cited from earlier work
# P-gp = test system: P-gp; set-up: method as in Theravance Biopharma US, Inc., data on file; conditions: ref Theravance Biopharma US, Inc., data on file; cited from earlier work
# T1 sequence (Q01959 whole entry): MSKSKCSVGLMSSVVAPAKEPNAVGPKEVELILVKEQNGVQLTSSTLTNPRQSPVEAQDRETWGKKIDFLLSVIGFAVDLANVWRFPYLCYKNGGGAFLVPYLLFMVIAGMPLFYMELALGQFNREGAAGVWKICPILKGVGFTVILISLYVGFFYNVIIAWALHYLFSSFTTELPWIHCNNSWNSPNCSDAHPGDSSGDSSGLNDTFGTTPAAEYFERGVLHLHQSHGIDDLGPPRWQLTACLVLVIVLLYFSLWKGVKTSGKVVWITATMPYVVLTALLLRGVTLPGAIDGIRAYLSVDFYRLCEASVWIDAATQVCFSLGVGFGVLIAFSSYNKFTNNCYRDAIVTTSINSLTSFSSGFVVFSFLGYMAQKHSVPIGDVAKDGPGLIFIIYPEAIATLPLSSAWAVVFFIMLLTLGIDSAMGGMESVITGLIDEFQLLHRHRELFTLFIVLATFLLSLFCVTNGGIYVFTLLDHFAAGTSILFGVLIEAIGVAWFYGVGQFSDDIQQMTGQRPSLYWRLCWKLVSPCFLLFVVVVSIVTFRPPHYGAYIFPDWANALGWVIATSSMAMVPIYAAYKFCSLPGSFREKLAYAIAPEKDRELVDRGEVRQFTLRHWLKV
smiles,measurement,setting,value
"Fc1cc(F)c(OCc2ccccc2C2CCNCC2)c(F)c1 [TD-9855, 4-[2-(2,4,6-trifluorophenoxymethyl)phenyl]piperidine]",Ki,human recombinant DAT,200 nM
same,Ki,rat native SERT,3.16 nM
same,Tmax,"[1]; ascending single dose studies, ref Theravance Biopharma US, Inc.",6 to 12 h
same,pharmacokinetic (plasma) half-life,"[1]; ref Theravance Biopharma US, Inc.",30 to 40 h
same,accumulation in plasma after repeated administration,[1]; ref Theravance,3- to 4 fold
same,P-gp substrate status,P-gp,non-P-gp substrate

# — paper PMC4368888, “Preclinical to Clinical Translation of CNS Transporter Occupancy of TD-9855, a Novel Norepinephrine and Serotonin Reuptake Inhibitor” (International Journal of Neuropsychopharmacology, 2015)
